# In patent US20190060249A1 (priority 2017, published 2019):
# Biological target: T1, ALDH3A1 (Homo sapiens, UniProt P30838)
# T1 sequence (P30838 1-453): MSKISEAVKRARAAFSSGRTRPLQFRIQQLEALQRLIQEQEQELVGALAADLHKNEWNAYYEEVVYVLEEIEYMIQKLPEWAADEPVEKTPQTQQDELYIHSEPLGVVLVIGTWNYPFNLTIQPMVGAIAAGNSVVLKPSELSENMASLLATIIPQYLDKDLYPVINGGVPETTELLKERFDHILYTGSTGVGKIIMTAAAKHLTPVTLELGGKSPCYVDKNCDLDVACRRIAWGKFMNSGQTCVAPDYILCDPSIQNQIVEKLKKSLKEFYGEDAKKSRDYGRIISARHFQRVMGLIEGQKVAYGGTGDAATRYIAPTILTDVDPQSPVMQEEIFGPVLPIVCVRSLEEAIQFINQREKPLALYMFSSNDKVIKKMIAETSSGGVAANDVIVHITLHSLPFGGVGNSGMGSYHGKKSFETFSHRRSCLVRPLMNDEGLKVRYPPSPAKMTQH
# Assay: ALDH enzymatic assay (spectrophotometric), recombinant ALDH3A1
# Format: biochemical
# Details: 10 mM acetaldehyde, propionaldehyde, benzaldehyde, cinnamaldehyde, decanal, heptaldehyde or 200 μM 4-hydroxynonenal; 100 μM compound
# Description: To determine if ALDH3A1 activation is sufficient to protect salivary glands from radiation-induced dysfunction, a library of 135 traditional Chinese medicine extracts donated from Sun Ten Pharmaceutical Co., Taiwan, was screened using a spectroscopic enzyme activity assay and purified recombinant ALDH3A1. […] We then conducted high performance liquid chromatography (HPLC) fractionation of the extracts and nuclear magnetic resonance (NMR) characterization of the fractions. Based on the NMR fingerprint, we identified known constituents of similar fingerprints and purchased the commercially available compounds to test using the enzyme activity assay.
# ALDH enzymatic assay: ALDH1A1, ALDH1A2, 2, 3A1, 3A2, 4A1, 5A1, 7A1 were measured as previously described using 5 μg/ml of recombinant protein (Chen, C. H., Cruz, L. A., and Mochly-Rosen, D. (2015) Pharmacological recruitment of aldehyde dehydrogenase 3A1 (ALDH3A1) to assist ALDH2 in acetaldehyde and ethanol metabolism in vivo. Proceedings of the National Academy of Sciences of the United States of America 112, 3074-3079). […] Assays were conducted in 50 mM NaPPi buffer (pH 7.4) in the presence of 2.5 mM NAD^+ and 10 mM substrate and measured in triplicate at 25° C. Dose response curve fits and EC50's were calculated using GraphPad Prism 7 software.
# Activity measured in presence of compound concentrations from 6 nM to 400 μM.
structure (smiles),measurement,value
"C=CCc1ccc2c(c1)OCO2 [Alda-89, safrole, reference compound]",substrate specificity of increase in ALDH3A1 catalytic activity,only increase the catalytic activity of ALDH3A1 towards small aldehydes like acetaldehyde and propionaldehyde but not aromatic or long-chain aldehydes
